# Legend:
# Assay type in all cases: cell-based
# [1] = tested on: wild germs from hand's volunteers (mainly Staphylococcus epidermitis); assay: Lasting antibacterial protection, PHMB-Mucin in surfactant solutions; conditions: surfactant solution alone (NO PHMB-Mucin), 2.5% AI in water
# Procedure: (§1) Ceramic tiles are treated with 200 μl of the solutions to test; untreated tiles are used as reference. After overnight drying of the treatment, tiles are rinsed with 2×10 ml deionized water and let dry for 1 hour. Tiles are then inoculated in the horizontal position for 5 hours with 200 μl of a suspension of wild germs from hand's volunteers (mainly Staphylococcus epidermitis). After rinsing of the surface with 2×10 ml sterile tap water to remove the germs source, the contamination of the surface is determined by direct imprint with Tryptic Soy Agar plates (a nutritive gelified support). Colony forming units (=cfu=microorganisms) are counted after 48 hours incubation at RT.
# PHMB-Mucin in Surfactant Solutions
# Test methodology is described under example II. We considered nonionic surfactants (Neodols), anionics (SLS, PS), and amphoteric (CAPB) at 2.5% Al in water. The mixture is Neodol 91-8 1.25%, Neodol 91-5 0.25%, CAPB 0.45%, PS 0.5%.
# [2] = tested on: wild germs from hand's volunteers (mainly Staphylococcus epidermitis); assay: Lasting antibacterial protection of the surface (treated ceramic tiles, imprint cfu count); conditions: tiles rinsed 2×10 ml deionized water; inoculated 5 hours; counted after 48 hours at RT
# Procedure: as §1, with “Measure” for “Ceramic tiles are treated with 200 μl”, “Lasting Antibacterial Protection of the Surface […]” for “solutions to test; untreated tiles are used as reference.”, “[…]).” for “epidermitis).”
# [3] = tested on: wild germs from hand's volunteers (mainly Staphylococcus epidermitis); assay: Lasting antibacterial protection, stronger rinsing with water
# Procedure: as §1
# Stronger Rinsing with Water:
# Methodology is the same as described under example II but rinsing is operated either with 2×10 ml or 5×10 ml water or with a tap water shower head during 30 sec.
# [4] = rinsing tap water shower head 30 sec.
Compound,cfu/tile - average on 3 replicates ([1]; series of PHMB 0.06%-Mucin 0.03%),cfu/tile - average on 3 replicates ([1]; series of PHMB 0.09%-Mucin 0.05%),Cfu/ceramic tile Average on 3 replicates [2],cfu/ceramic tile average on 3 replicates ([3]; rinsing 2 × 10 ml water),cfu/ceramic tile average on 3 replicates ([3]; rinsing 5 × 10 ml water),"cfu/ceramic tile average on 3 replicates [3, 4]"
"CCCCCCCCCCCCOS(=O)(=O)[O-].[Na+] [SLS, sodium lauryl sulfate]",277 ± 34 cfu/tile,77 ± 25 cfu/tile,–,–,–,–
mucin [Mucin 0.1%],–,–,82 ± 15 Cfu/ceramic tile,50 ± 19 cfu/ceramic tile,129 ± 36 cfu/ceramic tile,149 ± 5 cfu/ceramic tile
mucin [Mucin 0.05%],–,–,68 ± 12 Cfu/ceramic tile,26 ± 7 cfu/ceramic tile,98 ± 23 cfu/ceramic tile,72 ± 17 cfu/ceramic tile
mucin [Mucin 0.03%],–,–,110 ± 18 Cfu/ceramic tile,37 ± 3 cfu/ceramic tile,118 ± 43 cfu/ceramic tile,145 ± 8 cfu/ceramic tile

# — patent publication US20050084468A1, “Antimicrobial cleaning composition” (Colgate-Palmolive Company, priority 2003, published 2005)
